Measured values: patent publication US8975293B2, “Epigenetic co-repressors of the gamma-globin gene and methods of using same” (Regents of the University of Michigan, priority 2011, dated 2015)

Experiments:
[1] = test system: primary human erythroid cells; test: Proliferation and viability of differentiating erythroid cells, trypan blue count; format: cell-based; conditions: day 4 through day 14
Experimental: (§1) Cryopreserved vials of purified human CD34+ cells, which were isolated from peripheral blood of healthy donors after mobilization with granulocyte colony-stimulating factor, were purchased from the Fred Hutchinson Cancer Research Center. The cells were grown and differentiated ex vivo into the erythroid lineage in 14 days by a two-phase culture method reported previously (Cui et al., 2011, Mol. Cell. Biol., 31:3298-3311; Giarratana et al., 2005, Nat. Biotechnol., 23:69-74). […] Cell morphology was examined by staining cytospins with a Wright-Giemsa stain (Sigma-Aldrich). Hemoglobin synthesis was examined by acid benzidine staining as previously described (Orkin et al., 1975, PNAS USA, 72:98-102).
(§2) A pLKO.1-puro lentiviral vector to express the LSD1 shRNA and a puromycin resistance gene was purchased from Sigma-Aldrich (TRCN0000046070), and the control empty vector was generated by removing a region (between EcoRI and NdeI sites) containing the hairpin sequence. Lentiviral particles were generated by transfecting the vectors into a packaging cell line. Cells were exposed to the viruses on day 4 of the culture for 24 hours, and then to 1 μg/ml puromycin on day 6 through day 14 for selection of infected cells.

[2] = test system: primary human erythroid cells; test: Hemoglobin analysis by HPLC, HbF synthesis; format: cell-based; conditions: day 14, average, untreated control 4.6%
Experimental: as §1
Cells were lysed and analyzed for hemoglobin composition by the B10-Rad Variant II Hemoglobin Testing System equipped with an ion-exchange HPLC column (Hercules). Averages of three to five biological replicates are presented.
as §2

[3] = test system: primary human erythroid cells; conditions: 0.5, 1.5 or 5 μM
Experimental: as §1
For cell surface marker analysis, cells were stained with phycoerythrin (PE)-Cy7-conjugated anti-CD34 (eBioscience), PE-conjugated anti-CD71 (eBioscience), and PE-Cy5-conjugated antiglycophorin A (BD Biosciences) antibodies. For cytoplasmic HbF analysis, cells were fixed in 0.05% glutaraldehyde for 10 min, permeabilized in 0.1% Triton X-100 for 5 min, and then stained with allophycocyanin-conjugated anti-HbF antibody (Invitrogen). Stained cells were analyzed with the FACSCanto II (BD Biosciences).

fetal gamma-globin mRNA = format: cell-based, human; conditions: TC treatment, by day 14
Experimental: as §1
Expression of the genes for human gamma- and beta-globins, LSD1, mouse alpha-globin, and 18S rRNA was determined by RT-qPCR assay as described previously (Cui et al., supra). The abundance of each transcript was calculated based on the threshold cycle value and the amplification efficiency, experimentally determined for each primer pair, and then normalized to the abundance of 18S rRNA transcript as an internal control. All the primer pairs except for 18S rRNA were designed to span introns. […]

[4] = test system: H3K4 demethylase activity of LSD1; conditions: differentiating erythroid cells, normalized to untreated cells
Experimental: as §1

gamma-globin promoter = conditions: day 11
Experimental: as §1

Human beta-globin gene = conditions: 3 or 10 mg/kg per day s.c., 5 days a week for 4 weeks
Experimental: (§3) Expression of the genes for human gamma- and beta-globins, LSD1, mouse alpha-globin, and 18S rRNA was determined by RT-qPCR assay as described previously (Cui et al., supra). The abundance of each transcript was calculated based on the threshold cycle value and the amplification efficiency, experimentally determined for each primer pair, and then normalized to the abundance of 18S rRNA transcript as an internal control. All the primer pairs except for 18S rRNA were designed to span introns.
(§4) Control mice were injected with saline only. After 4 weeks of injections, bone marrow cells were harvested for RTqPCR analysis for expression of the genes for human gamma- and beta-globins, and mouse alpha-globin as an internal control. Three or four mice were used for each experimental condition.

human gamma-globin gene = conditions: 3 or 10 mg/kg per day s.c., 5 days a week for 4 weeks; dose dependent
Experimental: as §3, §4

[5] = 3 or 10 mg/kg per day s.c., 5 days a week for 4 weeks
Experimental: as §4

N[C@@H]1C[C@H]1c1ccccc1 (racemic) [TC, Tranylcypromine]
cell proliferation ([1]; 0.5 μM): did not affect | cell viability ([1]; 0.5 μM): did not affect | cell proliferation ([1]; 1.5 μM): did not affect | cell viability ([1]; 1.5 μM): did not affect | cell proliferation ([1]; 5 μM): reduced cell proliferation | cell viability ([1]; 5 μM): without affecting viability | HbF, % of total hemoglobin (HPLC) ([2]; 0.5 μM): 13% | HbF, % of total hemoglobin (HPLC) ([2]; 1.5 μM): 20% | HbF, % of total hemoglobin (HPLC) ([2]; 5 μM): 31% | cell population positive for both CD71 and GPA [3]: slight to moderate reduction | HbF inductive effect by flow cytometry ([3]; day 14): both pancellular and dose-dependent | induction of fetal gamma-globin mRNA (fetal gamma-globin mRNA): up to 9.4 fold | global H3K4 dimethylation [4]: enhanced global H3K4 dimethylation in a dose dependent manner | H3K4 dimethylation at the gamma-globin promoter (gamma-globin promoter): enhanced H3K4 dimethylation | human beta-globin gene expression in bone marrow cells (Human beta-globin gene): not significantly affected | induction of human gamma-globin gene expression in bone marrow cells vs control mice (human gamma-globin gene): about 3 fold | activity of the mice (anecdotal observation) [5]: much more active | signs of toxic effects on hematological or other systems [5]: did not exhibit any signs of toxic effects | tolerability [5]: well tolerated
